# Measurements from patent US20080069898A1, “Topical Compositions Comprising Myrica Gale Oil” (priority 2004, published 2008).
# System: skin
# Assay: 96 hour patch test of irritancy
# Settings: 0.3% w/v in sterile water
# Protocol: A 96 hour patch test was carried out to assess the irritancy or otherwise of Myrica gale oil when applied to the skin. For comparison, a solution of sodium dodecyl sulphate and white soft paraffin were also investigated.
smiles,measurement,value
"CCCCCCCCCCCCOS(=O)(=O)[O-].[Na+] [Sodium dodecyl sulphate (SDS), Sodium dodecyl sulphate]",Mean Dryness (D),0.72
same,Mean Erythema (E),4.54
same,Mean Irritation (E + D),5.26
